Where a name gives a salt, the structure may show the parent alone. Read-outs that look alike come from different tables or passages of the source.
Assays:
[1] = cited from earlier work
[2] = cited from earlier work; remark: listed apart in the source
[3] = Controlled drinking experiment with a healthy volunteer: urinary excretion profile by LC-MS/MS; conditions: for UAC (urine alcohol concentration): 540 ml wine, 49 g ethanol
Method: (§1) Characteristic tandem-mass spectrometric fragmention of EtS, purchased from ABCR Karlsruhe/Germany, was obtained when analyzing EtS solution in product ion scan mode: deprotonated molecule (M-H)^−, m/z 125 and fragment ions m/z 80 and 97. An LC-MS/MS-method, which has previously been published for the determination of EtG (Weinmann 2004), was modified by inclusion of the transitions for EtS. Subsequent LC/MS/MS-analysis was performed in MRM-mode (m/z 125 to m/z 97 and m/z 80 and by monitoring the unfragmented precursor ion (m/z 125) of EtS (ion chromatograms of diluted reference solution see FIG. 1). A gradient elution with increasing acetonitrile concentration of the eluting solvent was used—all other chromatographic equipment was as described in the article by Weinmann et al. (Weinmann 2004).
(§2) Sample preparation was done by addition of D5-EtG and dilution of the urine sample prior to injection in the LC-MS/MS system. Quantification was performed using D5-EtG as internal standard.

[4] = human, in vivo
Method: as §1, §2

fatty acid ethyl esters [FAEEs]
time detectable in hair [1]: several months | time detectable in hair ([1]; listed as FAEE): months | time detectable in serum and erythrocytes after drinking ([1]; serum and erythrocytes): up to 24 h | time detectable in serum after cessation of ethanol intake ([1]; serum): up to 24 h | stability in blood samples (in words) ([2]; blood samples, continued enzyme activity): not stable

phosphatidylethanol [PEth]
time detectable in whole blood after cessation of ethanol intake ([1]; whole blood): > 2 weeks

CCO [ethanol]
time since which urinary ethanol (UAC) had not been detectable ([3]; counted back from the 36 hours time point): 23 h | UAC (urine alcohol concentration) ([3]; 0 h:min after ethanol uptake): 0.003 g % | UAC (urine alcohol concentration) ([3]; 1:00 h:min after ethanol uptake): 0.022 g % | UAC (urine alcohol concentration) ([3]; 2:06 h:min after ethanol uptake): 0.078 g % | UAC (urine alcohol concentration) ([3]; 2:46 h:min after ethanol uptake): 0.082 g % | UAC (urine alcohol concentration) ([3]; 8:00 h:min after ethanol uptake): 0.046 g % | UAC (urine alcohol concentration) ([3]; 11:20 h:min after ethanol uptake): 0.003 g % | UAC (urine alcohol concentration) ([3]; 13:20 h:min after ethanol uptake): 0 g % | UAC (urine alcohol concentration) ([3]; 14:50 h:min after ethanol uptake): 0 g % | UAC (urine alcohol concentration) ([3]; 16:40 h:min after ethanol uptake): 0 g % | UAC (urine alcohol concentration) ([3]; 19:10 h:min after ethanol uptake): 0 g % | UAC (urine alcohol concentration) ([3]; 21:30 h:min after ethanol uptake): 0 g % | UAC (urine alcohol concentration) ([3]; 26:30 h:min after ethanol uptake): 0 g % | UAC (urine alcohol concentration) ([3]; 32:00 h:min after ethanol uptake): 0 g % | UAC (urine alcohol concentration) ([3]; 36:00 h:min after ethanol uptake): 0 g %

CCO[C@@H]1O[C@H](C(=O)O)[C@@H](O)[C@H](O)[C@H]1O [EtG, ethyl glucuronide]
detection in urine at the last time point [4]: positive | time detectable following complete elimination of alcohol from the body ([1]; dose-dependently, after even minor amounts of alcohol like 10 grams): 4 days | time detectable in hair [1]: months | time detectable in urine after cessation of ethanol intake ([1]; urine): up to 5 days | water solubility (in words) [2]: water-soluble

CCOS(=O)(=O)O [EtS, ethyl sulfate]
time detectable in urine [4]: up to 36 hours
